# From US8148424B2, “Tocopherols, tocotrienols, other chroman and side chain derivatives and uses thereof” (Research Development Foundation, priority 1998, dated 2012)
# pEC50: −log10 of the molar value.
# Tests used:
# [1] = test system: DU-145 Human Prostate Cancer Cells Transplanted into Nude Mice; assay: Preclinical chemotherapeutic xenograft study; assay type: in vivo; settings: 30 mg/day gavage; for Percent mean tumor weight gain (mg) following treatments: relative to day 1 of same group
# Method: (§1) For the preclinical chemotherapeutic studies, in the absence of an maximum tolerated dose, the mice are supplemented with 30 and 20 mgs/0.1 ml by gavage daily for 21 days. Compound 1 is dissolved in 100% ethanol at 2 grams of compound 1/5 mls of ethanol, and diluted in peanut oil (nonsupplemented vitamin E) to yield 30 and 20 mgs of compound 1 per 0.1 ml. Vehicle control consisted of a mixture of ethanol and peanut oil equivalents. The preclinical chemotherapeutic studies are conducted with compound 1, utilizing human MDA-MB-435 human breast cancer cells, human DU-145 prostate cancer cells, and human HT-20 colon tumor cells transplanted into Balb/c immune compromised nude mice.
# (§2) A total of 40 immune compromised nude mice are utilized for testing each test compound (two treatment groups at 20 and 30 mg/day) in each tumor cell type. […] Tumor cells are transplanted subcutaneously into the left flank and permitted to grow to approximately 70 mg in size, test compound treatments by daily gavage are initiated, and continue for a total of 21 days. Mice are monitored daily for tumor size by caliper measurements. Mice are treated for 21 days; however, the mice are sacrificed when the tumors of the vehicle control reached 500 mg in weight. At the completion of the protocol, tumors are excised and tumor size established by weight. At the time of sacrifice, serum, tumor, and heart muscle are taken from animals in the two compound 1 test groups in order to establish levels of compound 1 via HPLC analyses (data not included). The chemotherapeutic effectiveness of compound 1 administered daily at 30 and 20 mgs/day is determined by comparing the tumor size of the two treatment groups with the vehicle control group for each of the three tumor types, and by comparing the size of the tumor in the two treatment groups with the tumor group from the positive control. Treatment is for 21 days, experiments are continued until mean weight of tumor for vehicle control reaches 500 mgs.
# [2] = test system: HT-29 Human Colon Cancer Cells Transplanted into Nude Mice; assay: Preclinical chemotherapeutic xenograft study; assay type: in vivo; settings: for Percent mean tumor weight gain (mg) following treatments: relative to day 1 of same group
# Method: as §1, §2
# [3] = Solubility in ethanol (stock solution); assay type: physicochemical; settings: in 5 mls of 100% ethanol, vortex at 37° C.
# Excerpt: This is the maximum amount of compound 1 that will go into solution.
# [4] = test system: MCF-7 cells; assay: DNA synthesis arrest by 3H-uptake (Example 8); assay type: cell-based, human; settings: Homo sapiens, MCF7, 5% serum, 3H-uptake at one day treatment
# Method: MDA-MB-435 and MCF-7 cells at 1.5×10^5/well in 12 well plates for apoptosis and 1.5×10^4/well in 96 well plates for DNA synthesis arrest were incubated overnight in culture media and treated with α-tocopherol, α-tocotrinel, compound 1, 6-0-carboxymethyl alpha-tocotrienol (6-0-CM-α-T, 44), and vitamin E succinate (VES) at different concentrations in experimental media (2% serum for MDA-MB-435 cells and 5% serum for MCF-7 cells). DNA synthesis arrest was determined by ^3H-uptake at one day treatment and apoptosis was detected by DAPI staining at three day treatment. EC50 was calculated as the dosage of test compounds that gave 50% growth inhibition.
# [5] = test system: Fas/Fas ligand signaling pathway; assay: Fas/Fas ligand apoptotic signaling in Fas resistant tumor cells; assay type: cell-based, human
# Excerpt: Activated Fas/Fas ligand signaling may lead to rapid cell death by apoptosis. Thus, for tumor cells to escape death by Fas/Fas ligand, they must inactivate this most important apoptotic pathway. The mechanism for inactivation of the Fas/Fas ligand signaling pathway by tumor cells varies; however, many tumor cells down regulate the expression of Fas receptor and Fas ligand on their membranes.
compound,measurement,setting,value
"Cc1c(C)c2c(c(C)c1OCC(=O)O)CC[C@@](C)(CCC[C@H](C)CCC[C@H](C)CCCC(C)C)O2 [Compound 1, 2,5,7,8-tetramethyl-(2R-(4R,8R,12-trimethyltridecyl)chroman-6-yloxy)acetic acid]",Percent mean tumor weight gain (mg) following treatments,[1]; day 1,100%
same,Mean tumor Weights (mg) Following Treatments,[1]; day 5,102.5 mg
same,Percent mean tumor weight gain (mg) following treatments,[1]; day 5,151.2%
same,Mean tumor Weights (mg) Following Treatments,[1]; day 8,131.3 mg
same,Percent mean tumor weight gain (mg) following treatments,[1]; day 8,193.7%
same,Mean tumor Weights (mg) Following Treatments,[1]; day 12,241.2 mg
same,Percent mean tumor weight gain (mg) following treatments,[1]; day 12,355.8%
same,Mean tumor Weights (mg) Following Treatments,[1]; day 15,256.8 mg
same,Percent mean tumor weight gain (mg) following treatments,[1]; day 15,378.8%
same,Mean tumor Weights (mg) Following Treatments,[1]; day 19,379.9 mg
same,Percent mean tumor weight gain (mg) following treatments,[1]; day 19,379.9%
same,Mean tumor Weights (mg) Following Treatments,[1]; day 22,407 mg
same,Percent mean tumor weight gain (mg) following treatments,[1]; day 22,560.3%
same,reduction of mean tumor weight vs vehicle control,"[2]; 20 mg/day by gavage for 21 days, day 22",33.3%
same,Mean tumor Weights (mg) Following Treatments,"[2]; 20 mg/day gavage, day 1",59.5 mg
same,Percent mean tumor weight gain (mg) following treatments,"[2]; 20 mg/day gavage, day 1",100%
same,Mean tumor Weights (mg) Following Treatments,"[2]; 20 mg/day gavage, day 5",84.0 mg
same,Percent mean tumor weight gain (mg) following treatments,"[2]; 20 mg/day gavage, day 5",141.2%
same,Mean tumor Weights (mg) Following Treatments,"[2]; 20 mg/day gavage, day 8",97.0 mg
same,Percent mean tumor weight gain (mg) following treatments,"[2]; 20 mg/day gavage, day 8",163.0%
same,Mean tumor Weights (mg) Following Treatments,"[2]; 20 mg/day gavage, day 12",124.6 mg
same,Percent mean tumor weight gain (mg) following treatments,"[2]; 20 mg/day gavage, day 12",209.4%
same,Mean tumor Weights (mg) Following Treatments,"[2]; 20 mg/day gavage, day 15",147.3 mg
same,Percent mean tumor weight gain (mg) following treatments,"[2]; 20 mg/day gavage, day 15",247.6%
same,Mean tumor Weights (mg) Following Treatments,"[2]; 20 mg/day gavage, day 19",198.0 mg
same,Percent mean tumor weight gain (mg) following treatments,"[2]; 20 mg/day gavage, day 19",332.8%
same,Mean tumor Weights (mg) Following Treatments,"[2]; 20 mg/day gavage, day 22",248.2 mg
same,Percent mean tumor weight gain (mg) following treatments,"[2]; 20 mg/day gavage, day 22",417.1%
same,reduction of mean tumor weight vs vehicle control,"[2]; 30 mg/day by gavage for 21 days, day 22",34.5%
same,Mean tumor Weights (mg) Following Treatments,"[2]; 30 mg/day gavage, day 1",40.0 mg
same,Percent mean tumor weight gain (mg) following treatments,"[2]; 30 mg/day gavage, day 1",100%
same,Mean tumor Weights (mg) Following Treatments,"[2]; 30 mg/day gavage, day 5",83.0 mg
same,Percent mean tumor weight gain (mg) following treatments,"[2]; 30 mg/day gavage, day 5",139.5%
same,Mean tumor Weights (mg) Following Treatments,"[2]; 30 mg/day gavage, day 8",96.7 mg
same,Percent mean tumor weight gain (mg) following treatments,"[2]; 30 mg/day gavage, day 8",162.5%
same,Mean tumor Weights (mg) Following Treatments,"[2]; 30 mg/day gavage, day 12",129.3 mg
same,Percent mean tumor weight gain (mg) following treatments,"[2]; 30 mg/day gavage, day 12",217.3%
same,Mean tumor Weights (mg) Following Treatments,"[2]; 30 mg/day gavage, day 15",144.1 mg
same,Percent mean tumor weight gain (mg) following treatments,"[2]; 30 mg/day gavage, day 15",242.2%
same,Mean tumor Weights (mg) Following Treatments,"[2]; 30 mg/day gavage, day 19",176.1 mg
same,Percent mean tumor weight gain (mg) following treatments,"[2]; 30 mg/day gavage, day 19",296.0%
same,Mean tumor Weights (mg) Following Treatments,"[2]; 30 mg/day gavage, day 22",243.8 mg
same,Percent mean tumor weight gain (mg) following treatments,"[2]; 30 mg/day gavage, day 22",409.7%
same,maximum amount that will go into solution,[3],2 grams
same,pEC50,[4],4.70
same,Fas receptor localisation,[5]; Fas signaling resistant human breast cancer cells,transported from the cytoplasm to the membrane
same,Fas/Fas ligand sensitivity of resistant tumor cells,[5]; Fas/Fas ligand resistant tumor cells,induce Fas/Fas ligand resistant tumor cells to become Fas/Fas ligand sensitive
same,"anti-Fas triggered apoptosis, co-treatment","[5]; human breast and prostate cancer cells, co-treated versus separately",synergistic
